Measurements from PubChem BioAssay AID1963963 (Molecular Pharmacology Branch, DTP, NCI, 2024).

System: 958667-338-R-J2-PDC tumor spheroids viability
Assay: Anticancer human tumor 958667-338-R-J2-PDC patient-derived colon adenocarcinoma cell line growth inhibition [PI3K]
Settings: spheroids with HUVEC and MSC; for viability, T/C: stronger effect = lower value
How it was run: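 Tumor cells grown as multi-cell spheroids with HUVEC endothelial cells and MSC fibroblast-like stroma were treated with targeted agents combined with inavolisib, alpelisib, duvelisib or copanlisib. Doses fell in half-log steps from near clinical Cmax, else from 10 microM. Viability was measured.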

[1] = curve of first compound, second compound 0.0316 µM
[2] = curve of first compound, second compound 0.1 µM
[3] = curve of first compound, second compound 0.316 µM
[4] = curve of first compound, second compound 1 µM
[5] = curve of first compound, second compound 3.16 µM
[6] = curve of first compound, second compound 10 µM
[7] = second compound 0.0316 µM, first compound 0.0316 µM
[8] = second compound 0.0316 µM, first compound 0.1 µM
[9] = second compound 0.1 µM, first compound 0.0316 µM
[10] = second compound 0.1 µM, first compound 0.1 µM
[11] = second compound 0.316 µM, first compound 0.0316 µM
[12] = second compound 0.316 µM, first compound 0.1 µM
[13] = second compound 1 µM, first compound 0.0316 µM
[14] = second compound 1 µM, first compound 0.1 µM
[15] = second compound 3.16 µM, first compound 0.0316 µM
[16] = second compound 3.16 µM, first compound 0.1 µM
[17] = second compound 10 µM, first compound 0.0316 µM
[18] = second compound 10 µM, first compound 0.1 µM
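Also: spheroids exposed to compounds for seven days before readout.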

In the case of `Cn1nccc1Nc1nccc(-c2ccn(C(CO)c3ccc(Cl)c(F)c3)c(=O)c2)n1` (centres undefined) + CC(Nc1ncnc2nc[nH]c12)c1cc2cccc(Cl)c2c(=O)n1-c1ccccc1, the IC50 [1] is reported as greater than 10000 nM, the IC50 [2] is reported as greater than 10000 nM and the IC50 [3] is reported as greater than 10000 nM. For the same compound, the IC50 [4] was greater than 10000 nM, the IC50 [5] was greater than 10000 nM and the IC50 [6] was 8080 nM. The viability, T/C [7] was 93.3%, the viability, T/C [8] was 93.3% and the viability, T/C (second compound 0.0316 µM, first compound 0.316 µM) was 92.1%. The viability, T/C (second compound 0.0316 µM, first compound 1 µM) was 97.6%, the viability, T/C (second compound 0.0316 µM, first compound 3.16 µM) was 72.2% and the viability, T/C (second compound 0.0316 µM, first compound 10 µM) was 77.8%. It also gave a viability, T/C [9] of 88%, a viability, T/C [10] of 106% and a viability, T/C (second compound 0.1 µM, first compound 0.316 µM) of 109%. It also gave a viability, T/C (second compound 0.1 µM, first compound 1 µM) of 69.4%, a viability, T/C (second compound 0.1 µM, first compound 3.16 µM) of 73.6% and a viability, T/C (second compound 0.1 µM, first compound 10 µM) of 63.3%. The viability, T/C [11] was 91.1%, the viability, T/C [12] was 105% and the viability, T/C (second compound 0.316 µM, first compound 0.316 µM) was 80.6%. For the same compound, the viability, T/C (second compound 0.316 µM, first compound 1 µM) was 106%, the viability, T/C (second compound 0.316 µM, first compound 3.16 µM) was 76.3% and the viability, T/C (second compound 0.316 µM, first compound 10 µM) was 60.1%. The viability, T/C [13] was 93.9%, the viability, T/C [14] was 87% and the viability, T/C (second compound 1 µM, first compound 0.316 µM) was 82.7%. The viability, T/C (second compound 1 µM, first compound 1 µM) was 89.6%, the viability, T/C (second compound 1 µM, first compound 3.16 µM) was 83.5% and the viability, T/C (second compound 1 µM, first compound 10 µM) was 50.7%. It also gave a viability, T/C [15] of 82.9%, a viability, T/C [16] of 79.9% and a viability, T/C (second compound 3.16 µM, first compound 0.316 µM) of 68.3%. It also gave a viability, T/C (second compound 3.16 µM, first compound 1 µM) of 75.4%, a viability, T/C (second compound 3.16 µM, first compound 3.16 µM) of 66.8% and a viability, T/C (second compound 3.16 µM, first compound 10 µM) of 51.4%. The viability, T/C [17] was 94%, the viability, T/C [18] was 94.2% and the viability, T/C (second compound 10 µM, first compound 0.316 µM) was 67.3%. It also gave a viability, T/C (second compound 10 µM, first compound 1 µM) of 87.6%, a viability, T/C (second compound 10 µM, first compound 3.16 µM) of 66.3% and a viability, T/C (second compound 10 µM, first compound 10 µM) of 44.9%.
Compound `CC(C)n1nc(-c2ccc3oc(N)nc3c2)c2c(N)ncnc21` + Cc1nc(NC(=O)N2CCCC2C(N)=O)sc1-c1ccnc(C(C)(C)C(F)(F)F)c1 has an IC50 [1] of 61.7 nM, an IC50 [2] of 60.6 nM and an IC50 [3] of 59.5 nM. The IC50 [4] was 41.9 nM, the IC50 [5] was 30.2 nM and the IC50 [6] was 2.2 nM. The viability, T/C (second compound 0.0316 µM, first compound 0.000316 µM) was 94%, the viability, T/C (second compound 0.0316 µM, first compound 0.001 µM) was 91.7% and the viability, T/C (second compound 0.0316 µM, first compound 0.00316 µM) was 80.9%. It also gave a viability, T/C (second compound 0.0316 µM, first compound 0.01 µM) of 77.8%, a viability, T/C [7] of 61.1% and a viability, T/C [8] of 41.4%. For the same compound, the viability, T/C (second compound 0.1 µM, first compound 0.000316 µM) was 102%, the viability, T/C (second compound 0.1 µM, first compound 0.001 µM) was 85.8% and the viability, T/C (second compound 0.1 µM, first compound 0.00316 µM) was 108%. It also gave a viability, T/C (second compound 0.1 µM, first compound 0.01 µM) of 73.7%, a viability, T/C [9] of 76.5% and a viability, T/C [10] of 33.1%. For the same compound, the viability, T/C (second compound 0.316 µM, first compound 0.000316 µM) was 77.3%, the viability, T/C (second compound 0.316 µM, first compound 0.001 µM) was 89.3% and the viability, T/C (second compound 0.316 µM, first compound 0.00316 µM) was 80.5%. The viability, T/C (second compound 0.316 µM, first compound 0.01 µM) was 82.2%, the viability, T/C [11] was 71.5% and the viability, T/C [12] was 32%. It also gave a viability, T/C (second compound 1 µM, first compound 0.000316 µM) of 70%, a viability, T/C (second compound 1 µM, first compound 0.001 µM) of 68.1% and a viability, T/C (second compound 1 µM, first compound 0.00316 µM) of 74.5%. For the same compound, the viability, T/C (second compound 1 µM, first compound 0.01 µM) was 79%, the viability, T/C [13] was 56% and the viability, T/C [14] was 31.4%. It also gave a viability, T/C (second compound 3.16 µM, first compound 0.000316 µM) of 72%, a viability, T/C (second compound 3.16 µM, first compound 0.001 µM) of 73.8% and a viability, T/C (second compound 3.16 µM, first compound 0.00316 µM) of 73.2%. For the same compound, the viability, T/C (second compound 3.16 µM, first compound 0.01 µM) was 57.5%, the viability, T/C [15] was 52% and the viability, T/C [16] was 24.3%. The viability, T/C (second compound 10 µM, first compound 0.000316 µM) was 56%, the viability, T/C (second compound 10 µM, first compound 0.001 µM) was 51.5% and the viability, T/C (second compound 10 µM, first compound 0.00316 µM) was 39.8%. It also gave a viability, T/C (second compound 10 µM, first compound 0.01 µM) of 52.9%, a viability, T/C [17] of 34.3% and a viability, T/C [18] of 21.1%.
With `CC1(C)CCC(Nc2ncc(C(F)(F)F)c(-c3c[nH]c4c(P(C)(C)=O)c(C#N)ccc34)n2)CN1` (centres undefined) the viability, T/C (compound 0.0316 µM) was 97.9% [middle of 4 runs], the viability, T/C (compound 1 µM) was 66.5% [middle of 4 runs] and the viability, T/C (compound 3.16 µM) was 64.5% [middle of 4 runs]. For the same compound, the viability, T/C (compound 10 µM) was 36.4% [middle of 4 runs] and the IC50 (curve of compound) was 5.09 µM [middle of 4 runs].
